These are literature values, as cited in patent US11534622B2, “Non-invasive systems and methods for selective activation of photoreactive responses” (IMMUNOLIGHT, LLC, priority 2014, dated 2022).

SMILES strings stand for the structures.

The conditions of data set [1]: clinical use.
In the next data set the test system is tumors. The note with it: in vivo.
The conditions of data set [2]: orange juice, high UV exposure of 100 mJ/cm^2.

Consider `Oc1cccc(-c2c3nc(c(-c4cccc(O)c4)c4ccc([nH]4)c(-c4cccc(O)c4)c4nc(c(-c5cccc(O)c5)c5ccc2[nH]5)CC4)C=C3)c1` [Foscan, Tetra (m-hydroxyphenyl) chlorin], for which the “duration of skin photosensitivity” value in data set [1] is reported as “approximately 2 weeks”.
Consider `CC(=O)[O-].CC(=O)[O-].CCc1c(CC)c2cc3nc(cnc4cc(OCCOCCOCCOC)c(OCCOCCOCCOC)cc4ncc4nc(cc1[n-]2)C(CCCO)=C4C)C(C)=C3CCCO.O.[Lu+3]` [Lutetium texaphryin, Motexafin lutetium], for which, in the data set on tumors, the “selectivity for tumors compared to normal tissues” value is “one of the greatest reported selectivities for tumors”.
As to `O=C1O[C@H]([C@@H](O)CO)C(O)=C1O` [Vitamin C], the “degradation of Vitamin C” value in data set [2] was 17%.
